From US10065990B2, “Cyclic peptide compound, and preparation method, pharmaceutical composition and use thereof” (HANGZHOU GUANYU BIO-MEDICAL CO., LTD, priority 2013, dated 2018) come the findings set out here.

Structures are written as SMILES. Like-named read-outs stand apart in the source and are kept apart here.

The test system of test [1] is MCF-7 (human breast cancer cells). As to the kind of experiment: MTT cancer cell growth inhibition. The test is classed as cell-based. The note with it: Homo sapiens, MCF7, 72 h, 72 hours incubation, read-out: GI50 MCF. In a few lines:
(§1)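 Tumour cells in 10% FBS-supplemented DMEM or RPMI 1640 are plated at 1500 per well, dosed next day with compound (10^−5 through 10^−10 M, final) and kept 72 h. MTT is added for 4 h; dissolved formazan is measured at 570 nm and GI50 determined.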

For test [2], the system named is MDA-MB-231 (breast cancer cells). As to the kind of experiment: MTT cancer cell growth inhibition. In kind it is cell-based. The note with it: Homo sapiens, MDA-MB-231, 72 h, read-out: GI50 MDA-MB-231, MTT, 72 hours incubation, MDA-MB-231 cells. The gist of the method:
as §1

Test [3] has as its system PANC-1 (Pac-1, human pancreatic cancer cells). As to the kind of experiment: MTT cancer cell growth inhibition. The note with it: Homo sapiens, PANC-1, 72 h, MTT, 72 hours incubation, read-out: GI50 PAN. The test is classed as cell-based. The gist of the method:
as §1

For test [4], the system named is KBM-5 (human chronic myelogenous leukemia). The test can be described thus: MTT cancer cell growth inhibition. The test is classed as cell-based. The conditions noted are these: Homo sapiens, KBM5, 72 h, MTT, 72 hours incubation, KBM-5 cells; read-out: GI50 KBM-5. In a few lines: as §1
Test [5] concerns HCC827 (human non-small cell lung cancer cells). The test can be described thus: MTT cancer cell growth inhibition. The test is classed as cell-based. The conditions noted are these: Homo sapiens, HCC827, 72 h, MTT, 72 hours incubation, HCC827 cells; read-out: GI50 HCC827. The gist of the method:
as §1

For test [6], the system named is HT1080 (human fibrosarcoma cells). The test can be described thus: MTT cancer cell growth inhibition. The test is classed as cell-based. The conditions noted are these: Homo sapiens, HT-1080, 72 h, MTT, 72 hours incubation, read-out: GI50 HT1. The gist of the method: as §1
Test [7] deals with Hela (human cervical cancer cells). The test can be described thus: MTT cancer cell growth inhibition. The test is classed as cell-based. The note with it: Homo sapiens, HeLa, 72 h, MTT, 72 hours incubation, read-out: GI50 Hela. The gist of the method:
as §1

The test system of test [8] is H1975 (non-small cell lung adenocarcinoma). The test can be described thus: MTT cancer cell growth inhibition. The test is classed as cell-based. The note with it: Homo sapiens, NCI-H1975, 72 h, MTT, 72 hours incubation, H1975 cells; read-out: GI50 H1975. In a few lines: as §1
Test [9] concerns KBM5-T315I (human chronic myelogenous leukemia). The test can be described thus: MTT cancer cell growth inhibition. The test is classed as cell-based. The note with it: Homo sapiens, 72 h, MTT, 72 hours incubation, KBM5-T315I cells; read-out: GI50 KBM5-T315I. The gist of the method:
as §1

Test [10] has as its system U937 (human leukemia cells). The test can be described thus: MTT cancer cell growth inhibition. In kind it is cell-based. The note with it: Homo sapiens, U-937, 72 h, MTT, 72 hours incubation, read-out: GI50 U93. The gist of the method: as §1
Test [11] deals with lncap (prostate cancer cells). As to the kind of experiment: MTT cancer cell growth inhibition. In kind it is cell-based. The note with it: Homo sapiens, LNCaP, 72 h, MTT, 72 hours incubation, read-out: GI50 lnca. In a few lines:
as §1

The test system of test [12] is K562 (human leukemia cells). The test can be described thus: MTT cancer cell growth inhibition. The note with it: Homo sapiens, K562, 72 h, MTT, 72 hours incubation, K562 cells; read-out: GI50 K562. In kind it is cell-based. In a few lines: as §1
Test [13] relates to A549 (human lung cancer cells). As to the kind of experiment: MTT cancer cell growth inhibition. The note with it: Homo sapiens, A549, 72 h, MTT, 72 hours incubation, read-out: GI50 A54. The test is classed as cell-based. In a few lines: as §1
Test [14] concerns SGC-7901 (human gastric cancer cells). As to the kind of experiment: MTT cancer cell growth inhibition. The conditions noted are these: Homo sapiens, SGC-7901, 72 h, MTT, 72 hours incubation, SGC-7901 cells; read-out: GI50 SGC-7901. In kind it is cell-based. In a few lines:
as §1

For test [15], the system named is BGC-823 (human gastric cancer cells). The test can be described thus: MTT cancer cell growth inhibition. In kind it is cell-based. The conditions noted are these: Homo sapiens, BGC-823, 72 h, MTT, 72 hours incubation, read-out: GI50 BG. In a few lines:
as §1

Test [16] has as its system Bel-7402 (human hepatoma cells). The test can be described thus: MTT cancer cell growth inhibition. The conditions noted are these: Homo sapiens, Bel-7402, 72 h, MTT, 72 hours incubation, Bel-7402 cells; read-out: GI50 Bel-7402. In kind it is cell-based. The gist of the method:
as §1

Test [17] has as its system Huh-7 (human hepatoma cells). As to the kind of experiment: MTT cancer cell growth inhibition. The note with it: Homo sapiens, Huh-7, 72 h, MTT, 72 hours incubation, Huh-7 cells; read-out: GI50 Huh-7. The test is classed as cell-based. In a few lines: as §1
Test [18] relates to N-87 (human gastric cancer cells). As to the kind of experiment: MTT cancer cell growth inhibition. The note with it: Homo sapiens, 72 h, MTT, 72 hours incubation, N-87 cells; read-out: GI50 N-87. In kind it is cell-based. In a few lines:
as §1

Test [19] concerns MOLT-4 (human acute lymphoblastic leukemia cells). The test can be described thus: MTT cancer cell growth inhibition. In kind it is cell-based. The conditions noted are these: Homo sapiens, MOLT-4, 72 h, MTT, 72 hours incubation, read-out: GI50 Mol. In a few lines: as §1
The test system of test [20] is DU145 (human prostate cancer cells). As to the kind of experiment: MTT cancer cell growth inhibition. In kind it is cell-based. The conditions noted are these: Homo sapiens, DU-145, 72 h, MTT, 72 hours incubation, read-out: GI50 Du1. The gist of the method: as §1
A further test concerns the target T1, HDAC7 (Homo sapiens, UniProt Q8WUI4).
T1 sequence (Q8WUI4 1-952): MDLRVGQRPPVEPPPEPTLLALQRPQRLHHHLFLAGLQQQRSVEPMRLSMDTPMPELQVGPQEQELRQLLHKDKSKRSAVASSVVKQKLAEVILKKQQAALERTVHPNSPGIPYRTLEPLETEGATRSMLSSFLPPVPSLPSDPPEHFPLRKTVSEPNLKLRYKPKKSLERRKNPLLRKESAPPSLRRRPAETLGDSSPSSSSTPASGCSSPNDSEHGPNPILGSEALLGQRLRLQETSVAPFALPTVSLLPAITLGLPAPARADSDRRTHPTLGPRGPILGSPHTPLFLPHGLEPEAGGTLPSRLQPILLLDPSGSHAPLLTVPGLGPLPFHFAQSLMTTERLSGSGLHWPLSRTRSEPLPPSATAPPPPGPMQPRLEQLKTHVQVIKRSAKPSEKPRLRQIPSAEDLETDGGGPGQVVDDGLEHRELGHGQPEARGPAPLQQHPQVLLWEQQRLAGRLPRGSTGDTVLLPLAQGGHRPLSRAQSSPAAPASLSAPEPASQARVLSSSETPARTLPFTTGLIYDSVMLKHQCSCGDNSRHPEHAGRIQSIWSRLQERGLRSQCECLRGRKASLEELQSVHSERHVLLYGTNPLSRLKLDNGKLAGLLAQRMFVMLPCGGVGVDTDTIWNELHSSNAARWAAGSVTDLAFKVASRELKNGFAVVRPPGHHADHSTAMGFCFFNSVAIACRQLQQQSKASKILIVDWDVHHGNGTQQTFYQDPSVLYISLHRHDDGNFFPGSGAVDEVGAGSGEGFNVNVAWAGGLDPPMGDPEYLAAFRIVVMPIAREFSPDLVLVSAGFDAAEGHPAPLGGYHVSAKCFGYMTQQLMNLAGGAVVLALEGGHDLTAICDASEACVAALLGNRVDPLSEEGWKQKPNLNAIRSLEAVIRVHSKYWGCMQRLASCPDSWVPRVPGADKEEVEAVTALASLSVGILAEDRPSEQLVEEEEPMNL
The test can be described thus: HDAC biochemical activity measurement (fluorescent substrate deacetylation).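 Note: fluorogenic deacetylation assay using acetyl-lysine substrate at 20 µM, enzyme and compound incubated 30 min at 37 °C, then developer added, fluorescence read at 360/460 nm.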 The conditions noted are these: HDAC7; 37° C. 30 minutes.

Usually GI50 stands for the concentration giving 50% growth inhibition. In the case of `C/C=C1\NC(=O)c2ccc(F)c(n2)CNC(=O)C[C@@H](/C=C/CCSC(C)=O)OC(=O)[C@H](C)NC1=O` [Example 65], the GI50 in test [1] is 60 nM; in [2], 43 nM; in test [3], 60 nM; in test [4] it was 92 nM; in [5], 62 nM; in test [6] it was 60 nM. The GI50 is 90 nM in test [7]; 29 nM in test [8]; 63 nM in test [9]; 20 nM in test [10]; 40 nM in test [11]; 29 nM in test [12]. The GI50 in test [13] was 70 nM; in test [14], 77 nM; in test [15], 50 nM; in test [16], 62 nM; in [17], 43 nM; in test [18], 52 nM. Further, the concentration for 50% growth inhibition (GI50) in test [19] was 40 nM; in test [20] it was 20 nM. The “IC50 HDAC7” value on HDAC7 was “no activity”.
For the compound `C/C=C1\NC(=O)c2cc(SC)cc(n2)CNC(=O)C[C@@H](/C=C/CCSC(=O)CC)OC(=O)[C@H](C(C)C)NC1=O` [Compound 163], the GI50 in [1] (MCF-7 cells) is 20 nM; in [2] it was 58 nM; in test [3] (PANC-1 cells) it was 70 nM; in test [4], 75 nM; in [5], 47 nM; in test [6] (HT1080 cells) it was 10 nM. The GI50 in test [7] (Hela cells) was 10 nM; in test [8], 45 nM; in [9], 23 nM; in test [10] (U937 cells), 30 nM; in test [11] (lncap cells), 30 nM; in [12] it was 58 nM. Also, the GI50 in [13] (A549 cells) worked out at 50 nM; in [14], 49 nM; in [15] (BGC-823 cells) it was 60 nM; in [16], 26 nM; in [17], 107 nM; in test [18] it was 39 nM. Moreover, the GI50 in [19] (MOLT-4 cells) and in test [20] (DU145 cells) was 40 nM each time. Further, at HDAC7, the “IC50 HDAC7” value is listed as “no activity”.
Turning to `C/C=C1\NC(=O)c2cccc(n2)CNC(=O)C[C@@H](/C=C/CCS)OC(=O)[C@H](Cc2ccc(O)cc2)NC1=O` [Compound 127], the GI50 in test [1] stood at 70 nM; in test [2], 37 nM; in test [3], 50 nM; in [4], 53 nM; in [5] it was 38 nM; in test [6] it was 80 nM. Besides, the concentration for 50% growth inhibition (GI50) turned out to be 80 nM in [7]; 36 nM in test [8]; 28 nM in test [9]; 50 nM in test [10]; 80 nM in [11]; 28 nM in [12]. Also, the GI50 in test [13] came out at 50 nM; in [14] it was 36 nM; in [15] it was 50 nM; in test [16], 37 nM; in [17] it was 71 nM; in [18] it was 46 nM. The GI50 in test [19] amounted to 80 nM; in [20] it was 70 nM. Besides, the “IC50 HDAC7” value against HDAC7 is reported as “no activity”.
Turning to `C/C=C1\NC(=O)c2nc(ccc2SC)CNC(=O)C[C@@H](/C=C/CCS)OC(=O)[C@H](CC)NC1=O` [Compound 229], the GI50 in test [1] (MCF-7 cells) amounted to 70 nM; in test [2], 23 nM; in [3] (PANC-1 cells) it was 50 nM; in test [4] it was 71 nM; in [5], 77 nM; in [6] (HT1080 cells), 10 nM. Also, the GI50 in [7] (Hela cells) stood at 30 nM; in test [8], 38 nM; in test [9] it was 53 nM; in [10] (U937 cells) it was 20 nM; in test [11] (lncap cells), 30 nM; in [12], 86 nM. For the same compound, the GI50 in test [13] (A549 cells) was found to be 60 nM; in test [14], 91 nM; in [15] (BGC-823 cells) it was 740 nM; in [16], 37 nM; in test [17] it was 28 nM; in [18] it was 77 nM. In addition, the GI50 came out at 30 nM in [19] (MOLT-4 cells) and 50 nM in [20] (DU145 cells). Further, the “IC50 HDAC7” value against HDAC7 is recorded as “no activity”.
`C=C1NC(=O)c2nc(ccc2F)CNC(=O)C[C@@H](/C=C/CCSC(C)=O)OC(=O)[C@H](C)NC1=O` [Compound 90]: the GI50 in [1] is 20 nM; in [2], 49 nM; in test [3], 90 nM; in test [4], 83 nM; in test [5] it was 94 nM; in [6], 90 nM. In addition, the GI50 in test [7] amounted to 80 nM; in test [8] it was 34 nM; in test [9], 24 nM; in test [10] it was 30 nM; in test [11], 40 nM; in test [12], 53 nM. For the same compound, the GI50 in [13] turned out to be 30 nM; in test [14], 36 nM; in test [15], 30 nM; in test [16], 94 nM; in test [17], 49 nM; in test [18], 34 nM. In addition, the GI50 in [19] came out at 40 nM; in test [20], 50 nM. The “IC50 HDAC7” value at HDAC7 was “no activity”.
